Measured values as given in patent publication US11142533B2, “Macrocycles for use in treating disease” (TURNING POINT THERAPEUTICS, INC., priority 2019, dated 2021).
Entries after “also recorded” stand apart in the source; their conditions may differ. Like-named read-outs stand apart in the source and are kept apart here. Blank lines part the entries; values can stand above or below the compound they belong to.

Tests used:
[1] = target: T1, ALK (L1196M) (Homo sapiens, UniProt Q9UM73, L1196M); assay: Biochemical kinase assay (Reaction Biology); conditions: 10 μM ATP
T1 construct: purchased Reaction Biology Corporation (contract assay)

[2] = target: T2, ALK (R1275Q) (Homo sapiens, UniProt Q9UM73, R1275Q); assay: Biochemical kinase assay (Reaction Biology); conditions: 10 μM ATP
T2 construct: purchased Reaction Biology Corporation (contract assay)

[3] = target: T3, ALK (F1245C) (Homo sapiens, UniProt Q9UM73, F1245C); assay: Biochemical kinase assay (Reaction Biology); conditions: 10 μM ATP
T3 construct: purchased Reaction Biology Corporation (contract assay)

[4] = target: T4, ALK (V1180L) (Homo sapiens, UniProt Q9UM73, V1180L); assay: Biochemical kinase assay (Reaction Biology); conditions: 10 μM ATP
T4 construct: purchased Reaction Biology Corporation (assay run there)

[5] = target: T5, ALK (F1174S) (Homo sapiens, UniProt Q9UM73, F1174S); assay: Biochemical kinase assay (Reaction Biology); conditions: 10 μM ATP
T5 construct: purchased Reaction Biology Corporation (contract assay)

[6] = target: T6, ALK (C1156Y) (Homo sapiens, UniProt Q9UM73, C1156Y); assay: Biochemical kinase assay (Reaction Biology); conditions: 10 μM ATP
T6 construct: purchased Reaction Biology Corporation (contract assay)

[7] = target: T7, ALK (L1198F/C1156Y) (Homo sapiens, UniProt Q9UM73, C1156Y/L1198F); assay: Biochemical kinase assay (Reaction Biology); conditions: 10 μM ATP
T7 construct: purchased Reaction Biology Corporation (contract assay)

[8] = target: T8, ALK (E1210K) (Homo sapiens, UniProt Q9UM73, E1210K); assay: Biochemical kinase assay (Reaction Biology); conditions: 10 μM ATP
T8 construct: purchased Reaction Biology Corporation (contract assay)

[9] = target: T9, ALK (L1152R) (Homo sapiens, UniProt Q9UM73, L1152R); assay: Biochemical kinase assay (Reaction Biology); conditions: 10 μM ATP
T9 construct: purchased Reaction Biology Corporation (contract assay)

[10] = target: T10, ALK (F1174L) (Homo sapiens, UniProt Q9UM73, F1174L); assay: Biochemical kinase assay (Reaction Biology); conditions: 10 μM ATP
T10 construct: purchased Reaction Biology Corporation (contract assay)

[11] = target: T11, ALK fusion protein in Ba/F3 cell-derived xenograft tumors with the EML4-ALK L1196M/G1202R fusion (Homo sapiens, UniProt Q9UM73, G1202R/L1196M); assay: In vivo pharmacodynamic study, tumor immunoblotting; set-up: species or system mice; conditions: for ALK phosphorylation level compared to control: 0.6, 2, or 5 mg/kg
T11 construct: expressed in transfected cells; host or cells: Ba/F3 cells (lentiviral transduction), implanted subcutaneously in SCID/Beige mice; the other entry of the earlier key: EML4 (Q9HC35, Echinoderm microtubule-associated protein-like 4)
Description: Mice bearing xenograft tumors were humanely euthanized and tumors were resected and snap frozen in liquid nitrogen and stored at −80° C. Frozen tumor samples were processed at 4° C. in 1× Cell Lysis Buffer (Cell Signaling Technologies) to extract proteins. SDS loading samples were prepared by addition of 4×LDS Sample Buffer and 10× Reducing Reagent (Life Technologies, Inc) to protein lysate. Tumor SDS protein samples were processed by SDS-PAGE and immunoblotted with rabbit anti-phosphorylated ALK Y1282/1283, rabbit anti-phosphorylated ALK Y1604, rabbit anti-ALK and mouse anti-actin antibodies (Cell Signaling Technologies). The signals from immunoblot were detected by C-DiGit Blot Scanner from LI-COR and the signal intensity were quantified using the Image Studio Digit software (LI-COR).
As the control, the expression level of actin was not affected by Compound 1 treatment.

[12] = target: Ba/F3 cell-derived tumors with the EML4-ALK L1196M/G1202R fusion (Homo sapiens, UniProt Q9UM73, G1202R/L1196M)
[13] = single oral dose 10 mg/kg, 2 hours post dose, tumor immunoblot, 10 mg/kg

IC50 [1]: 0.18 nM
IC50 [2]: 0.72 nM
IC50 [3]: 0.41 nM
IC50 [4]: 0.51 nM
IC50 [5]: 0.76 nM
IC50 [6]: 0.11 nM
IC50 [7]: 0.15 nM
IC50 [8]: 0.21 nM
IC50 [9]: 0.83 nM
IC50 [10]: 0.42 nM
Structure (SMILES): O=C1NCC2(CC2)COc2ccc(F)cc2CN2c3nc4c1cnn4cc3OC[C@H]2C(F)F [Compound 2, (16′S)-16′-(Difluoromethyl)-12′-fluoro-4′H,5′H,6′H,8′H,14′H,16′H,17′H-spiro[cyclopropane-1,7′-[1,19](metheno)[1,4]oxazino[3,4-j]pyrazolo[4,3-g][1,5,9,11]benzoxatriazacyclotetradecin]-4′-one]

ALK phosphorylation level compared to control ([11]; each dose, at 2 hours): significantly reduced
level of ALK fusion expression vs vehicle [11, 13]: reduction; also recorded: reduced
Tumor growth inhibition (TGI) ([12]; 0.6 mg/kg BID, after 7 days of treatment): 19%
Tumor growth inhibition (TGI) ([12]; 2 mg/kg BID, after 7 days of treatment): 44%
Tumor growth inhibition (TGI) ([12]; 5 mg/kg BID, after 7 days of treatment): 83%
Tumor growth inhibition (TGI) ([12]; 10 mg/kg BID, after 7 days of treatment): 200%
tumor growth compared with vehicle treated group ([12]; Compound 1 0.6 mg/kg BID or lorlatinib 5 mg/kg BID, day 14, p>0.05): not significantly different
Structure (SMILES): CC1(C)COc2ccc(F)cc2CN2c3nc4c(cnn4cc3OC[C@H]2C(F)F)C(=O)N1 [Compound 1, (4S)-4-(Difluoromethyl)-8-fluoro-13,13-dimethyl-3,4,13,14-tetrahydro-6H-18,1-(metheno)[1,4]oxazino[3,4-i]pyrazolo[4,3-f][1,4,8,10]benzoxatriazacyclotridecin-15(12H)-one]
ALK phosphorylation level compared to control ([11]; at 12 hours): only showed reduction at 12 hours at the highest dose
level of phosphorylation of ALK fusions at Y1282/1283 vs vehicle [11, 13]: inhibition of phosphorylation; also recorded: reduced
level of phosphorylation of ALK fusions at Y1604 vs vehicle [11, 13]: inhibition of phosphorylation; also recorded: reduced
body weight ([12]; 2, 5, 10 mg/kg BID, after 7 days of treatment): no body weight loss
